From patent US9695481B2, “Polynucleotides comprising a reporter sequence operatively linked to a regulatory element” (UNIVERSITEIT LEIDEN, priority 2010, dated 2017)
Structures can show the parent of a compound that is named as a salt. Where two headings read alike, the source gives them in different places.

Key:
[1] = system: Bscl2-GFP and Srxn1-GFP mES reporter cells
[2] = system: mouse ES cell lines containing a DsRed fluorescent reporter; details: cited from earlier work
[3] = system: Salmonella; details: cited from earlier work
[4] = cited from earlier work
[5] = Genotoxicity profile; data extracted from Kirkland et al. 2008; cited from earlier work
[6] = system: Srxn1-GFP mES reporter cells; assay: Srxn1-GFP oxidative stress reporter
[7] = Genotoxicity profile, data extracted from Kirkland et al. 2008
[8] = from which GFP reporter is induced

Row | Compound | Bscl2-GFP/Srxn1-GFP GFP Induction [1] | mES DsRed reporters ([2]; Hendriks et al. 2011) | Ames test [3, 7] | In vivo genotoxicity [4, 7] | In vitro genotoxicity [5] | other results
1 | C=C(C)[C@H]1CC=C(C)CC1 [D-limonene] | Neg. | Neg. |  |  |  | 
2 | O=[N+]([O-])c1ccc(O)cc1 [p-Nitrophenol] | Pos. (key: Pos.: considered positive when exposure to at least two different concentrations of a compound resulted in >1.5 fold induction of GFP expression) |  |  |  |  | Bscl2-GFP/Srxn1-GFP Prim. toxic properties [1]: Pro-oxidant; mES DsRed reporters [2]: Neg.
3 | CC[C@H]1OC(=O)[C@H](C)[C@@H](O[C@H]2C[C@@](C)(OC)[C@@H](O)[C@H](C)O2)[C@H](C)[C@@H](O[C@@H]2O[C@H](C)C[C@H](N(C)C)[C@H]2O)[C@](C)(O)C[C@@H](C)C(=O)[C@H](C)[C@@H](O)[C@]1(C)O [Erythromycin stearate] | Neg. |  | Neg. |  |  | 
4 | Nc1ccccc1C(=O)O [o-anthranilic acid] | Neg. | Pos. | Neg. | Neg. | Pos. | 
5 | CC[C@@]1(O)C(=O)OCc2c1cc1n(c2=O)Cc2cc3ccccc3nc2-1 [Camptothecin] | Pos. (considered positive when exposure to at least two different concentrations of a compound resulted in >1.5 fold induction of GFP expression) |  | Neg. | Neg. | Pos. | Bscl2-GFP/Srxn1-GFP Prim. toxic properties [1, 8]: Genotoxin
6 | OCCNCCO [Diethanolamine] | Neg. | Neg. | Neg. | Neg. | Neg. | 
7 | CCc1cc(C(N)=S)ccn1 [Ethionamide] | Neg. | Neg. | Neg. |  | Weak Pos. | 
8 | O=C1NS(=O)(=O)c2ccccc21.[Na] [Sodium saccharin] | Neg. |  |  |  |  | Ames test [3]: Neg.; In vivo genotoxicity ([4]; in vivo): Neg.; mES DsRed reporters [2]: Neg.
9 | n-butyl chloride |  |  |  |  |  | mES DsRed reporters [2]: Neg.
10 | CC(=O)O[C@H]1C(=O)[C@@]2(C)[C@H]([C@H](OC(=O)c3ccccc3)[C@]3(O)C[C@H](OC(=O)[C@H](O)[C@@H](NC(=O)c4ccccc4)c4ccccc4)C(C)=C1C3(C)C)[C@]1(OC(C)=O)CO[C@@H]1C[C@@H]2O [Taxol] |  |  | Neg. | Pos. | Pos. | Bscl2-GFP/Srxn1-GFP Prim. toxic properties [1]: Genotoxin
11 | OO [Hydrogen peroxide] |  | Neg. | Pos. | Neg. | Pos. | Bscl2-GFP/Srxn1-GFP Prim. toxic properties [1]: Pro-oxidant
12 | COc1cc(/C=C/C(=O)CC(=O)/C=C/c2ccc(O)c(OC)c2)ccc1O [Curcumln] | Neg. | Neg. | Neg. |  | Pos. | 
13 | NC(=S)N(C1CCCCC1)C1CCCCC1 [N,N-dicyclohexyl thiourea] | Neg. | Neg. | Neg. |  | Neg. | 
14 | CCCCC(CC)COP(=O)(OCC(CC)CCCC)OCC(CC)CCCC (centres unmarked) [Tris(2-ethylhexyl)phosphate] | Neg. | Neg. | Neg. | Neg. | Neg. | 
15 | C=CCc1ccc(O)c(OC)c1 [Eugenol] | Neg. |  | Neg. |  |  | In vivo genotoxicity ([4]; in vivo): Equivocal; mES DsRed reporters [2]: Neg.
16 | Bleomycin | Pos. (considered positive when exposure to at least two different concentrations of a compound resulted in >1.5 fold induction of GFP expression) |  | Pos. | Pos. | Pos. | Bscl2-GFP/Srxn1-GFP Prim. toxic properties [1, 8]: Genotoxin
17 | CN1CC[C@H](c2c(O)cc(O)c3c(=O)cc(-c4ccccc4Cl)oc23)[C@H](O)C1 [Flavopiridol] | Neg. |  |  |  |  | 
18 | Nc1ccn([C@@H]2O[C@H](CO)[C@@H](O)[C@@H]2O)c(=O)n1 [Cytarabine] |  |  |  |  |  | Bscl2-GFP/Srxn1-GFP Prim. toxic properties [1]: Genotoxin; Ames test [3]: Neg.
19 | c1ccncc1 [Pyrldlne] | Neg. | Neg. | Neg. | Neg. | Neg. | 
20 | CC(C)(C)c1cc(O)ccc1O [Tert-butylhydroquinone] |  | Pos. | Neg. | Neg. | Pos. | Bscl2-GFP/Srxn1-GFP Prim. toxic properties [1]: Pro-oxidant

Row | Compound | Bscl2-GFP/Srxn1-GFP GFP Induction [1] | mES DsRed reporters ([2]; Hendriks et al. 2011) | Ames test [3, 7] | In vivo genotoxicity [4, 7] | In vitro genotoxicity [5] | other results
21 | COC(N)=O [Methyl carbamate] |  |  |  | Neg. | Neg. | 
22 | CCCOC(=O)c1cc(O)c(O)c(O)c1 [Propyl gallate] |  | Pos. | Neg. | Equivocal | Pos. | Bscl2-GFP/Srxn1-GFP Prim. toxic properties [1]: Equivocal
23 | CN(C)C(=O)Nc1cccc(C(F)(F)F)c1 [Fluometron] | Neg. | Neg. | Neg. |  | Neg. | 
24 | O=C1CCCCC1 [Cyclohexanone] | Neg. | Neg. | Neg. |  | Neg. | 
25 | Nc1nc[nH]n1 [Amitrole] | Neg. | Neg. | Neg. | Neg. | Neg. | 
26 | ClC(Cl)(Cl)C(Cl)(Cl)Cl [Hexachloroethane] | Neg. | Neg. | Neg. | Neg. | Neg. | 
27 | Oc1ccc(Cl)cc1Cl [2,4-dichlorophenol] | Pos. (key: Pos.: considered positive when exposure to at least two different concentrations of a compound resulted in >1.5 fold induction of GFP expression) | Pos. |  |  |  | Bscl2-GFP/Srxn1-GFP Prim. toxic properties [1]: Pro-oxidant; Ames test [3]: Neg.; In vivo genotoxicity ([4]; in vivo): Weak Pos.
28 | Cc1noc(NS(=O)(=O)c2ccc(N)cc2)c1C [Sulfisoxazole] | Pos. (key: Pos.: considered positive when exposure to at least two different concentrations of a compound resulted in >1.5 fold induction of GFP expression) | Neg. | Neg. |  |  | Bscl2-GFP/Srxn1-GFP Prim. toxic properties [1]: Pro-oxidant
29 | NC(N)=O [Urea] | Neg. | Neg. | Neg. |  | Pos. | 
30 | CC(=O)N[C@@H](CS)C(=O)O [NAC, N-acetyl cysteine] |  |  |  |  |  | effect of scavenger alone on cell viability and reporter activity ([1]; data not shown): did not affect cell viability or reporter activity; effect on Srxn1-GFP reporter activation by pro-oxidants ([6]; co-incubation with DEM, CuSO4, NaAsO2, CdCl2 or MMS, 24 h): completely inhibited activation of the reporter; effect on Srxn1-GFP reporter activation by CisPt ([6]; data not shown): significantly reduced reporter activation
31 | CC(C)(C)OO [Tert-butyl hydroperoxide] | Pos. (key: Pos.: considered positive when exposure to at least two different concentrations of a compound resulted in >1.5 fold induction of GFP expression) |  |  |  |  | mES DsRed reporters [2]: Neg.
32 | O=[N+]([O-])c1cc[n+]([O-])c2ccccc12 [4-Nitroquinelone-1-oxide] | Pos. (considered positive when exposure to at least two different concentrations of a compound resulted in >1.5 fold induction of GFP expression) |  |  | Pos. | Pos. | Bscl2-GFP/Srxn1-GFP Prim. toxic properties [1, 8]: Genotoxin
33 | CCCCCC(O)C=CC=O (centres unmarked) [4-Hydroxy-2-nonenal] |  |  | Neg. | Neg. | Pos. | Bscl2-GFP/Srxn1-GFP Prim. toxic properties [1]: Pro-oxidant
34 | [H]/N=C(/N)N/C(=N/[H])NCCc1ccccc1 [Phenformin HCl] | Neg. | Neg. |  |  |  | 
35 | Oc1cccc(O)c1 [1,3-Dihydroxybenzene (Resorcinol), 1,3-Dihydroxybenzene] |  |  | Neg. | Neg. | Pos. | Bscl2-GFP/Srxn1-GFP Prim. toxic properties [1]: Equivocal
36 | CC(C)C=O [Isobutyraldehyde] | Neg. |  |  |  |  | mES DsRed reporters [2]: Neg.
37 | C=CC(=O)OCC [Ethyl acrylate] | Neg. | Neg. |  |  |  | Ames test [3]: Neg.; In vivo genotoxicity ([4]; in vivo): Weak Pos.
38 | C[N+](C)(C)CCCl.[Cl-] [(2-chloroethyl)trimethyl-ammonium chloride] | Neg. |  |  |  |  | Ames test [3]: Neg.; mES DsRed reporters [2]: Neg.
39 | Nc1ccc(Cl)cc1 [p-chloroaniline] | Neg. |  |  |  |  | Ames test [3]: Pos.; In vivo genotoxicity ([4]; in vivo): Pos.; mES DsRed reporters [2]: Neg.
40 | OCc1ccccc1 [Benzyl alcohol] | Neg. | Neg. | Neg. |  | Weak Pos. | 
